Results on one compound are retold here after patent US10851069B2, “Compositions of crystallized hydrophobic compounds and methods of making and using same” (Massachusetts Institute of Technology, priority 2016, dated 2020).

In this assay the test system is non-human primates (cynomolgus macaques). In words: Crystalline GW2580 alginate capsules (0.5 and 1.5 mm) implanted IP and SC in non-human primates, foreign body response. The note with it: for macrophage responses on retrieved capsules (FACS): all cases of remaining drug. It counts as in vivo. The protocol: Lead candidates identified in these studies, like GW2580, were subsequently tested in a non-human primate (NHP) model in which capsules (0.5 and 1.5 mm) were implanted in both the intraperitoneal (IP) and subcutaneous (SC) spaces (FIGS. 12 and 13C). […] IP space (lavage) drug concentrations were traced by LCMS fort each capsule type following retrieval time points, and found to drop from only 2-3 ng/ml at 4 weeks post-implantation to below detectable limit (0.5 ng/ml) beyond. […] And while 0.5 mm drug-loaded capsules became clumped at 3 months, they were not extensively embedded into surrounding omental tissue until 6 months (FIGS. 12, 23B and 23C).
For non-human primate (NHP) procedures, buprenorphine (0.01-0.03 mg/kg) was administered as a pre-operative analgesic. NHPs were then sedated using an intramuscular (IM) injection of ketamine (10 mg/kg) with an addition of midazolam as dictated by DCM vet staff if needed for additional sedation. Animals were maintained on a circulating warm water blanket and covered with a towel during the procedure to maintain body temperature. Either 0.5 or 1.5 mm diameter (drug-loaded) SLG20 spheres were implanted by minimally invasive laparoscopic surgery, and injected into the dorsal (back) regions of 4 non-human primates (cynomolgus macaques) using 18 and 12 gauge custom-manufactured (Harvard Apparatus) sterile stainless steel needles, with slip tip syringes in order to prevent shearing of our biomaterial upon injection. Needles were inserted tangentially to the backs of the NHPs, and were slid (tunneled) approximately 1-2 cm away from the initial injection point, in order to try to separate the injection from that of the site of eventual material response. Spheres (0.5 and 1.5 mm diameter) were injected into 4 total spots on the flank of 4 of our non-human primates: two spots on the left flank and two on the right, for 0.5 mm and 1.5 mm diameter sphere implants, respectively.
For non-human primate intraperitoneal and subcutaneous retrievals, similar to when material was implanted, NHPs were once again given buprenorphine (0.01-0.03 mg/kg) as a pre-operative analgesic, and sedated using an IM injection of ketamine (10 mg/kg), with midazolam as dictated by DCM vet staff if needed for additional sedation. Animals were once again maintained on a circulating warm water blanket and covered with a towel during the procedure to maintain body temperature. 8 mm diameter biopsy punches were then used to sample the entire skin and subcutaneous space at 2 and later at 4 weeks post-implantation. Following biopsy punches, the retrieval site was closed with 3-0 nylon in a simple-interrupted pattern and VetBond (tissue glue). For IP retrievals, minimally invasive laparoscopic surgery was also used (similar to implant procedures). […]

SMILES strings stand for the structures.

As for `COc1ccc(COc2ccc(Cc3cnc(N)nc3N)cc2OC)cc1` [GW2580, 5-[[3-Methoxy-4-[(4-methoxyphenyl)methoxy]phenyl]methyl]-2,4-pyrimidinediamine], the “sphere embedding and collagen deposition (H&E and Masson's Trichrome)” value (0.5 and 1.5 mm drug-loaded capsules, excised implant-site tissue) was “lack of sphere embedding and collagen deposition”. For the same compound, the “fibrosis development (phase contrast)” value (crystalline, 0.5 and 1.5 mm capsules, 2 and 4 weeks, IP and SC) was “prevented fibrosis development”. For the same compound, the “macrophage responses on retrieved capsules (FACS)” value (crystalline, 0.5 and 1.5 mm capsules) is given as “significant inhibition of macrophage responses”; the “macrophage responses on retrieved capsules (FACS)” value (crystalline, 0.5 and 1.5 mm capsules, listed as GW) is “reduced multiple orders of magnitude”.
